The results in this text go back to ChEMBL document CHEMBL4251565, “Functionalized 2,1-benzothiazine 2,2-dioxides as new inhibitors of Dengue NS5 RNA-dependent RNA polymerase” (Eur J Med Chem, 2018).

For data set [1], the target named is Nonstructural protein 5 (Dengue virus) (UniProt V5TFZ2). Put plainly: Inhibition of DENV3 NS5 RdRp using ss-RNA PolyC as template and GTP as substrate assessed as decrease in dsRNA levels after 1 hr in presence of tritonX100 by PicoGreen-based fluorescence assay. The following applies: dengue virus type 3.
In the next data set the test system is Zika virus. Put plainly: Antiviral activity against Zika virus clinical strain infected in African green monkey Vero E6 cells assessed as decrease in viral RNA levels up to 20 uM by qRT-PCR method. The data set is classed as functional, organism-based. The following applies: Vero C1008. A general note: Real-time PCR tracks product formation cycle by cycle.

Another data set concerns dengue virus type 3. In words: Antiviral activity against DENV3 clinical strain infected in African green monkey Vero E6 cells assessed as decrease in viral RNA levels up to 20 uM by qRT-PCR method. The data set is classed as functional, organism-based. Conditions: Vero C1008.
A further data set relates to dengue virus type 2. Put plainly: Antiviral activity against DENV2 clinical strain infected in African green monkey Vero E6 cells assessed as decrease in viral RNA levels up to 20 uM by qRT-PCR method. Type of data set: functional, organism-based. The following applies: Vero C1008.
Data set [2] concerns the target Nonstructural protein 5 (Dengue virus) (UniProt V5TFZ2). In words: Binding affinity to DENV3 NT-647-NHS labeled NS5 RdRp after 1 hr in presence of ss-RNA PolyC as template and GTP as substrate by microscale thermophoresis method. The following applies: dengue virus type 3.
A further data set relates to West Nile virus. In words: Antiviral activity against WNV clinical strain infected in African green monkey Vero E6 cells assessed as decrease in viral RNA levels up to 20 uM by qRT-PCR method. The following applies: Vero C1008. The data set is classed as functional, organism-based.
For data set [3], the system named is O=C(OC1=CS(=O)(=O)Nc2ccc(Oc3ccccc3Br)cc21)c1ccc(F)c(F)c1. In words: Mixed type inhibition of DENV3 NS5 RdRp using increasing concentration of ss-RNA PolyC as template assessed as Km for substrate after 1 hr in presence of GTP substrate after 1 hr by Lineweaver-Burk double reciprocal plot analysis. The following applies: dengue virus type 3.
For data set [4] the test system is unchanged. In words: Mixed type inhibition of DENV3 NS5 RdRp using increasing concentration of ss-RNA PolyC as template assessed as enzyme Vmax after 1 hr in presence of GTP substrate by Lineweaver-Burk double reciprocal plot analysis. Conditions: dengue virus type 3.
The test system is the same in data set [5]. Put plainly: Mixed type inhibition of DENV3 NS5 RdRp using increasing concentration of GTP as substrate assessed as Km for substrate after 1 hr in presence of ss-RNA PolyC template by Lineweaver-Burk double reciprocal plot analysis. Conditions: dengue virus type 3.
The test system is the same in data set [6]. Put plainly: Mixed type inhibition of DENV3 NS5 RdRp using increasing concentration of GTP as substrate assessed as enzyme Vmax after 1 hr in presence of ss-RNA PolyC template by Lineweaver-Burk double reciprocal plot analysis. Conditions: dengue virus type 3.

Calls of active or inactive are those of the source. No cut-off for these calls is given here.

In the case of `O=C(OC1=CS(=O)(=O)Nc2ccc(Oc3ccccc3Br)cc21)c1ccc(F)c(F)c1`, the inhibition entry in data set [1] was “Active”. The outcome in the data set on Zika virus, in the data set with dengue virus type 3, in the data set with dengue virus type 2 and in the data set on West Nile virus was inactive. In addition, in [2], the outcome was Active.
What is called Km is the concentration of substrate that gives half-maximal velocity. What is called Vmax is the rate approached at saturating substrate. On to “Nonstructural protein 5 (Dengue virus), V5TFZ2”, for which the Km in [3] came to 0.907 µM; in [5] it was 5.29 µM. Moreover, the values for the Vmax in [4] and in data set [6] were 23.2 nM/min and 15.8 nM/min, respectively.
